Measured values reported in patent US20110117055A1, “Methods of Treating Hepatitis C Virus with Oxoacetamide Compounds” (priority 2009, published 2011).

Key:
[1] = test system: HCV2aCh (E2:G451R) mutant virus; test: E2:G451R mutant virus infectivity, luciferase assay; format: cell-based, HCV genotype 2a; conditions: E2:G451R vs parental
Description: Since SR-B1 is also known to be one of the essential cellular receptors required for HCV entry, we were interested to know if Compounds 1 and 5 inhibits HCV entry via SR-B1. HCV E2 protein interaction with SR-B1 is believed to occur via hypervariable region 1 located within the N-terminal region of the E2 glycoprotein. Zhong and colleagues reported that a glycine-to-arginine mutation at position 451 (G451R) in E2 promoted JFH-1 infectivity (J. Viol. 2006, 80:11082). […] We introduced the E2:G451R mutation into the backbone of HCV2aCh (FIG. 13a) to test whether this mutation may alter the inhibitory effect of Compounds 1 and 5 on HCV entry mediated by SR-B1.

[2] = test system: Jc1-luc virus; test: Luciferase compound activity assay, Jc1-luc virus in Huh7.5.1 cells; format: cell-based, HCV genotype-2a; conditions: Jc1-luc; ± standard error of the mean
Experimental: Cell culture. Human hepatoma Huh-7.5.1 cells or Huh7 cells were grown at 37° C. and 5% CO2 in Dulbecco's modification of Eagle's medium supplemented with 2 mM L-glutamine, 1 mM Sodium pyruvate, 1× Non-essential amino acids mix, 100 units/ml penicillin, 100 μg/ml streptomycin, and 10% fetal bovine serum.
Virus plasmids. The chimeric full-length construct pFL-JC1, a GT2a/2a chimera consisting of structural genes from the J6CF isolate and non-structural genes from the JFH1 isolate, has been described previously. See Backes et al., J. Virol. 2010, 84:5775-89; Schaller et al., J. Virol., 2007, 81:4591-603; Koutsoudakis et al., J. Virol. 2006, 80:5308-20; Pietschmann et al., Proc. Natl. Acad. Sci., 2006, 103:7408-13. The firefly luciferase gene has been inserted to pFL-Jc1 to develop a plamid pFL-Jc1-luc for use as a reporter of viral replication. See Amako et al., J. Virol. 2009, 83:9237-46. Specifically, the pFL-JC1-luc construct can be utilized to develop an infectious HCV cell culture system to test novel HCV inhibitors, including entry inhibitors, in vitro using luciferase expression.
Preparation of infectious HCV. Jc1-luc or HCV2a/2aChRluc RNA was in vitro transcribed using T7 RiboMAX™ Express Large Scale RNA Production System (Promega). After RNA clean up (Qiagen RNeasy Mini kit), transfection was performed as previously described.
400 microliters of a Huh-7.5.1 or Huh7 cell suspension (10^7 cells/ml) was placed in a 0.4-cm cuvette with 10 μg of Jc1-luc or HCV2a/2aChRluc RNA and electroporated (Bio-Rad Gene Pulser System) using a single square wave at 260 V and 25 ms pulse length. The cells were plated in 15-cm tissue culture dishes (Corning) and supernatant was harvested and concentrated using a centrifugal filter (Amicon 100K, Millipore).
Luciferase compound activity assay. Cell culture and luciferase compound assays were performed as previously described. See Wyles et al., J. Virol. 2007, 81:3005-8; Wyles et al., Antimicrob Agents Chemother. 2009, 53:2660-2; Grünberger et al., J. Infect. Dis. 2008, 197:42-5; Wyles et al., Antimicrob Agents Chemother, 2008, 52:1862-4. Briefly, Huh7.5.1 cells were seeded into 96-well plates at a density of 10,000 cells per well in 100 μl medium. After incubating overnight for attachment, Jc1-luc virus at an MOI 0.01 was added to wells with or without compounds at the specified concentrations. All conditions were run in triplicate. After 24 hours, medium was aspirated and replaced with 100 μl of complete medium containing an identical concentration of compound(s) followed by additional 48 hour incubation. The luciferase assay (Bright-Glo; Promega) was carried out according to the manufacturer's instructions. Luciferase activity was determined using a microplate luminometer (Veritas microplate luminometer; Turner Biosystems). […]

[3] = test system: HCV genotype 1b subgenomic replicon; test: HCV replicon assay (HCV1b replicon cells, NS5A ELISA); format: cell-based; conditions: 3 days
Experimental: Alternatively, Hut1b cells (Huh7 cells stably replicating HCV genotype 1b subgenomic replicon) were treated with serial dilutions of the test compound for 72 hours. Replication efficiency was monitored by ELISA assay using anti-HCV NS5A monoclonal antibody (Virogen).
Increasing amounts of compound were inoculated onto HCV1b replicon cells and incubated for 3 days. Following incubation, HCV replication was monitored with NS5A protein expression by ELISA.

[4] = test system: Huh7.5.1 cells

For IFN-α, the “sensitivity of E2 mutant virus relative to parental virus, luciferase assay for viral infectivity” value [1] was “very identical patterns”, the EC50 [2] was 3.01 ± 0.39 IU/ml and the “effect on HCV replication (NS5A protein expression by ELISA)” value [3] was “dose dependent inhibition”. For the same substance, the CC50 [4] was over 100 IU/ml.
